Measurements from patent publication US20240270762A1, “PENICILLIN-BINDING PROTEIN INHIBITORS” (priority 2021, published 2024).

How the values were obtained:
A. baumannii PBP1a = target: T1, A. baumannii PBP1a (Acinetobacter baumannii, UniProt A0ABX6CK30); experiment: Bocillin-FL competition binding via gel filtration, A. baumannii PBP1a; conditions: competition binding assay using Bocillin-FL via gel filtration; read-out: A. baumannii PBP1a Potency
T1 sequence (A0ABX6CK30 1-851): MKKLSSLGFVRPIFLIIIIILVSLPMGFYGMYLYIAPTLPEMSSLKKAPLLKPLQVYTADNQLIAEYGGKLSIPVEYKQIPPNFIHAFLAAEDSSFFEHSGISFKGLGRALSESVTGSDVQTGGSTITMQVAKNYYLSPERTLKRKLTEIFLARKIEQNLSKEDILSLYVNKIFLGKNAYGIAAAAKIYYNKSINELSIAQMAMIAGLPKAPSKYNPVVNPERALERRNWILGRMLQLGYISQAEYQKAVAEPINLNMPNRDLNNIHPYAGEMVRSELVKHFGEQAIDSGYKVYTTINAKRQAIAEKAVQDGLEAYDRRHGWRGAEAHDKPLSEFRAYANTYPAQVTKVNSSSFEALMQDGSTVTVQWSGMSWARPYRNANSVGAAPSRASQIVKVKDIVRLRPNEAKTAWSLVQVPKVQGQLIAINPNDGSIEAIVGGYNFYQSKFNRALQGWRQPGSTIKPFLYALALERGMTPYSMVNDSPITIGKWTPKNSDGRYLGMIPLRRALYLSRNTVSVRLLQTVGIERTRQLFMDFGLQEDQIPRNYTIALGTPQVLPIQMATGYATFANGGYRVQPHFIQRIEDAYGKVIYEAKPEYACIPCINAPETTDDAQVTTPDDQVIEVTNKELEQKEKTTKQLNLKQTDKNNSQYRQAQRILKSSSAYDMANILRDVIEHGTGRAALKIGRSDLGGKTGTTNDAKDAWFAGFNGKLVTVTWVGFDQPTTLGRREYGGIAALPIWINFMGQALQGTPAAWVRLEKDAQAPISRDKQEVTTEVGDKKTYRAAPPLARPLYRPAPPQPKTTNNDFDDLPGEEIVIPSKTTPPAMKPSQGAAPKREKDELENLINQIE
Summary of the method: (§1)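 Enzyme pre-incubated with increasing inhibitor concentrations, then Bocillin-FL added for 15 min further incubation. Bocillin-FL-bound PBP separated by gel filtration and fluorescence read. EC50 from fitting fraction PBP bound vs inhibitor concentration to a Hill-type equation (ymin, ymax, n).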

A. baumannii PBP2 = A. baumannii PBP2 (Acinetobacter baumannii, UniProt D0C8Z9); experiment: Bocillin-FL competition binding via gel filtration, A. baumannii PBP2
Chain of A. baumannii PBP2 (D0C8Z9 whole entry): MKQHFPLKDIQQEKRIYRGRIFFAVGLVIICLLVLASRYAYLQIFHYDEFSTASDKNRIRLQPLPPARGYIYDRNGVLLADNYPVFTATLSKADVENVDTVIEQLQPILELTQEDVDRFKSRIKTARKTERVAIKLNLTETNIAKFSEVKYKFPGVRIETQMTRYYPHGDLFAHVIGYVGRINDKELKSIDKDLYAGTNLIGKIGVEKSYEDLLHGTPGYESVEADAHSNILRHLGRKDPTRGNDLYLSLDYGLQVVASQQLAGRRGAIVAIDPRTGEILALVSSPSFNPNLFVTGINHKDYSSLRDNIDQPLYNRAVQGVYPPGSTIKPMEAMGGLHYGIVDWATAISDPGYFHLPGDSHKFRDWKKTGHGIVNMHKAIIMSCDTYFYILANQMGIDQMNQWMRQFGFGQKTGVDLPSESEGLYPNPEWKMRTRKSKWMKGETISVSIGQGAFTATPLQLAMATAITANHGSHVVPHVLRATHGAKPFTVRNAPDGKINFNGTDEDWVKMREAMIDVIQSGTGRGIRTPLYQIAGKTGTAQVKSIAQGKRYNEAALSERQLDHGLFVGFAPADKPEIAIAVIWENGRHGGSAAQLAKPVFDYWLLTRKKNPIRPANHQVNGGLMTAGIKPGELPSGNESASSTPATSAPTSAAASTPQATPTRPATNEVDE
Summary of the method: as §1

SMILES | EC50 (A. baumannii PBP1a) [µM] | EC50 (A. baumannii PBP2) [µM]
CN(CCN1CCN(C(=O)N[C@@H](C(=O)N[C@H]2Cc3ccc(F)c(C(=O)O)c3OB2O)c2cc(F)c(O)c(O)c2Cl)C(=O)C1=O)Cc1cccnc1 [Example 201, (R)-3-((R)-2-(2-chloro-5-fluoro-3,4-dihydroxyphenyl)-2-(4-(2-(methyl(pyridin-3-ylmethyl)amino)ethyl)-2,3-dioxopiperazine-1-carboxamido)acetamido)-7-fluoro-2-hydroxy-3,4-dihydro-2H-benzo[e][1,2]oxaborinine-8-carboxylic acid] | 10 to 50 | 
O=C(NCCCN1CCN(C(=O)NC(C(=O)N[C@H]2Cc3ccc(F)c(C(=O)O)c3OB2O)c2cc(F)c(O)c(O)c2Cl)C(=O)C1=O)c1ccccc1 (stereo partly drawn) [Example 202, (3R)-3-(2-(4-(3-benzamidopropyl)-2,3-dioxopiperazine-1-carboxamido)-2-(2-chloro-5-fluoro-3,4-dihydroxyphenyl)acetamido)-7-fluoro-2-hydroxy-3,4-dihydro-2H-benzo[e][1,2]oxaborinine-8-carboxylic acid] | 10 to 50 | 50 to 250
O=C(NCCN1CCN(C(=O)NC(C(=O)N[C@H]2Cc3ccc(F)c(C(=O)O)c3OB2O)c2cc(F)c(O)c(O)c2Cl)C(=O)C1=O)c1ccccc1 (stereo partly drawn) [Example 207, (3R)-3-(2-(4-(2-benzamidoethyl)-2,3-dioxopiperazine-1-carboxamido)-2-(2-chloro-5-fluoro-3,4-dihydroxyphenyl)acetamido)-7-fluoro-2-hydroxy-3,4-dihydro-2H-benzo[e][1,2]oxaborinine-8-carboxylic acid] | 10 to 50 | 
O=C(NCCN1CCN(C(=O)NC(C(=O)N[C@H]2Cc3ccc(F)c(C(=O)O)c3OB2O)c2cc(F)c(O)c(O)c2Cl)C(=O)C1=O)Nc1ccc(O)cc1 (stereo partly drawn) [Example 219, (3R)-3-(2-(2-chloro-5-fluoro-3,4-dihydroxyphenyl)-2-(4-(2-(3-(4-hydroxyphenyl)ureido)ethyl)-2,3-dioxopiperazine-1-carboxamido)acetamido)-7-fluoro-2-hydroxy-3,4-dihydro-2H-benzo[e][1,2]oxaborinine-8-carboxylic acid] | < 10 | 10 to 50
O=C(NCCN1CCN(C(=O)NC(C(=O)N[C@H]2Cc3ccc(F)c(C(=O)O)c3OB2O)c2cc(F)c(O)c(O)c2Cl)C(=O)C1=O)Nc1cccc(O)c1 (stereo partly drawn) [Example 220, (3R)-3-(2-(2-chloro-5-fluoro-3,4-dihydroxyphenyl)-2-(4-(2-(3-(3-hydroxyphenyl)ureido)ethyl)-2,3-dioxopiperazine-1-carboxamido)acetamido)-7-fluoro-2-hydroxy-3,4-dihydro-2H-benzo[e][1,2]oxaborinine-8-carboxylic acid] | < 10 | < 10
O=C(CN1CCN(C(=O)NC(C(=O)N[C@H]2Cc3ccc(F)c(C(=O)O)c3OB2O)c2cc(F)c(O)c(O)c2Cl)C(=O)C1=O)Nc1ccc(O)cc1 (stereo partly drawn) [Example 230, (3R)-3-(2-(2-chloro-5-fluoro-3,4-dihydroxyphenyl)-2-(4-(2-((4-hydroxyphenyl)amino)-2-oxoethyl)-2,3-dioxopiperazine-1-carboxamido)acetamido)-7-fluoro-2-hydroxy-3,4-dihydro-2H-benzo[e][1,2]oxaborinine-8-carboxylic acid] | 10 to 50 | 
O=C(NCCN1CCN(C(=O)NC(C(=O)N[C@H]2Cc3ccc(F)c(C(=O)O)c3OB2O)c2cc(F)c(O)c(O)c2Cl)C1=O)c1ccc(O)cc1 (stereo partly drawn) [Example 243, (3R)-3-(2-(2-chloro-5-fluoro-3,4-dihydroxyphenyl)-2-(3-(2-(4-hydroxybenzamido)ethyl)-2-oxoimidazolidine-1-carboxamido)acetamido)-7-fluoro-2-hydroxy-3,4-dihydro-2H-benzo[e][1,2]oxaborinine-8-carboxylic acid] | 10 to 50 | 
O=C(NCCN1CCN(C(=O)NC(C(=O)N[C@H]2Cc3ccc(F)c(C(=O)O)c3OB2O)c2cc(F)c(O)c(O)c2Cl)C1=O)c1cccc(O)c1 (stereo partly drawn) [Example 244, (3R)-3-(2-(2-chloro-5-fluoro-3,4-dihydroxyphenyl)-2-(3-(2-(3-hydroxybenzamido)ethyl)-2-oxoimidazolidine-1-carboxamido)acetamido)-7-fluoro-2-hydroxy-3,4-dihydro-2H-benzo[e][1,2]oxaborinine-8-carboxylic acid] | 10 to 50 | 
O=C(NCCCN1CCN(C(=O)N[C@@H](C(=O)N[C@H]2Cc3ccc(F)c(C(=O)O)c3OB2O)c2cc(F)c(O)c(O)c2Cl)C1=O)c1ccccc1 [Example 253, (R)-3-((R)-2-(3-(3-benzamidopropyl)-2-oxoimidazolidine-1-carboxamido)-2-(2-chloro-5-fluoro-3,4-dihydroxyphenyl)acetamido)-7-fluoro-2-hydroxy-3,4-dihydro-2H-benzo[e][1,2]oxaborinine-8-carboxylic acid] | 10 to 50 | < 10
O=C(NCCS(=O)(=O)N1CCN(C(=O)NC(C(=O)N[C@H]2Cc3ccc(F)c(C(=O)O)c3OB2O)c2cc(F)c(O)c(O)c2Cl)C1=O)c1ccccc1 (stereo partly drawn) [Example 260, (3R)-3-(2-(3-((2-benzamidoethyl)sulfonyl)-2-oxoimidazolidine-1-carboxamido)-2-(2-chloro-5-fluoro-3,4-dihydroxyphenyl)acetamido)-7-fluoro-2-hydroxy-3,4-dihydro-2H-benzo[e][1,2]oxaborinine-8-carboxylic acid] |  | 10 to 50
O=C(NCCS(=O)(=O)N1CCN(C(=O)NC(C(=O)N[C@H]2Cc3ccc(F)c(C(=O)O)c3OB2O)c2cc(F)c(O)c(O)c2Cl)C1=O)c1cccc(O)c1 (stereo partly drawn) [Example 261, (3R)-3-(2-(2-chloro-5-fluoro-3,4-dihydroxyphenyl)-2-(3-((2-(3-hydroxybenzamido)ethyl)sulfonyl)-2-oxoimidazolidine-1-carboxamido)acetamido)-7-fluoro-2-hydroxy-3,4-dihydro-2H-benzo[e][1,2]oxaborinine-8-carboxylic acid] | 10 to 50 | 10 to 50
O=C(NCCS(=O)(=O)N1CCN(C(=O)NC(C(=O)N[C@H]2Cc3ccc(F)c(C(=O)O)c3OB2O)c2cc(F)c(O)c(O)c2Cl)C1=O)Nc1cccc(O)c1 (stereo partly drawn) [Example 266, (3R)-3-(2-(2-chloro-5-fluoro-3,4-dihydroxyphenyl)-2-(3-((2-(3-(3-hydroxyphenyl)ureido)ethyl)sulfonyl)-2-oxoimidazolidine-1-carboxamido)acetamido)-7-fluoro-2-hydroxy-3,4-dihydro-2H-benzo[e][1,2]oxaborinine-8-carboxylic acid] | < 10 | 10 to 50
O=C(NCCCS(=O)(=O)N1CCN(C(=O)NC(C(=O)N[C@H]2Cc3ccc(F)c(C(=O)O)c3OB2O)c2cc(F)c(O)c(O)c2Cl)C1=O)c1ccncc1 (stereo partly drawn) [Example 272, (3R)-3-(2-(2-chloro-5-fluoro-3,4-dihydroxyphenyl)-2-(3-((3-(isonicotinamido)propyl)sulfonyl)-2-oxoimidazolidine-1-carboxamido)acetamido)-7-fluoro-2-hydroxy-3,4-dihydro-2H-benzo[e][1,2]oxaborinine-8-carboxylic acid] | 10 to 50 | 
O=C(NCCCS(=O)(=O)N1CCN(C(=O)NC(C(=O)N[C@H]2Cc3ccc(F)c(C(=O)O)c3OB2O)c2cc(F)c(O)c(O)c2Cl)C1=O)c1cccnc1 (stereo partly drawn) [Example 273, (3R)-3-(2-(2-chloro-5-fluoro-3,4-dihydroxyphenyl)-2-(3-((3-(nicotinamido)propyl)sulfonyl)-2-oxoimidazolidine-1-carboxamido)acetamido)-7-fluoro-2-hydroxy-3,4-dihydro-2H-benzo[e][1,2]oxaborinine-8-carboxylic acid] |  | 10 to 50
O=C(NCCCS(=O)(=O)N1CCN(C(=O)NC(C(=O)N[C@H]2Cc3ccc(F)c(C(=O)O)c3OB2O)c2cc(F)c(O)c(O)c2Cl)C1=O)c1nccs1 (stereo partly drawn) [Example 274, (3R)-3-(2-(2-chloro-5-fluoro-3,4-dihydroxyphenyl)-2-(2-oxo-3-((3-(thiazole-2-carboxamido)propyl)sulfonyl)imidazolidine-1-carboxamido)acetamido)-7-fluoro-2-hydroxy-3,4-dihydro-2H-benzo[e][1,2]oxaborinine-8-carboxylic acid] | < 10 | 
O=C(NCCCS(=O)(=O)N1CCN(C(=O)NC(C(=O)N[C@H]2Cc3ccc(F)c(C(=O)O)c3OB2O)c2cc(F)c(O)c(O)c2Cl)C1=O)Nc1ccc(O)cc1 (stereo partly drawn) [Example 276, (3R)-3-(2-(2-chloro-5-fluoro-3,4-dihydroxyphenyl)-2-(3-((3-(3-(4-hydroxyphenyl)ureido)propyl)sulfonyl)-2-oxoimidazolidine-1-carboxamido)acetamido)-7-fluoro-2-hydroxy-3,4-dihydro-2H-benzo[e][1,2]oxaborinine-8-carboxylic acid] | < 10 | 
